Where two headings read alike, the source gives them in different places.
Columns and labels:
[1] = tested on: androgen independent CSS LNCaP cells
Experimental: 5×10^4 human prostate cancer androgen independent CSS LNCaP cells were seeded in a 6-well dish and 8 hours later were treated with either 50 μM selenate or not (control).
(§1) The parental androgen-sensitive LNCaP cell line was obtained from the American Type Culture Collection (Manassas, Va., USA) and routinely cultured in […] (Invitrogen) supplemented with 10% foetal calf serum and 1% antibiotic/antimycotic mixture (Invitrogen). Cells were maintained at 37° C. in 5% CO2. To select androgen independent LNCaP cells LNCaPs were cultured in […] (Invitrogen) in 5% Charcoal stripped serum (CSS) (Invitrogen) which has removed all detectable traces of testosterone, for 6-8 weeks and obtained LNCaP cell lines which were now able to freely proliferate in the absence of testosterone. These cells are referred to as CSS LNCaPs.
(§2) Between 5×10^4 (FIGS. 1-2) and 1×10^5 LNCaP, CSS LNCaP or Q293 cells were allowed to attach overnight. […] Supernatants and cells were then harvested, combined and viable cells assessed by Trypan Blue exclusion assay. Experiments were performed in triplicate.

[2] = tested on: retinoblastoma protein (Rb ser807/811); conditions: 0.5 mM, time-dependent
Excerpt: (§3) The following antibodies were obtained from Cell Signaling Technology (Beverly, Mass., USA) unless otherwise stated: anti-p27^KIP1 (bd Pharmingen), anti-p21^CIP1 , ANTI-CYCLIN d1, ANTI-CYCLIN d3, ANTI-CDK4, ANTI-CDK6, ANTI-PHOSPHO rb (Ser807/811), anti-RB, anti-phospho Akt (Ser473), anti-phospho Akt (Thre308), anti-Akt, anti-phospho PDK1 (Ser241), anti-phospho PDK1 (Tyr373/376), anti-phospho GSK-3β, anti-phospho mTOR (Ser2448), anti-mTOR, anti-βIII tubulin (Promega).
(§4) To determine the effect of selenate on the phosphorylation of proteins involved in the PI3K/Akt signaling cascade, 5×10^5 PC-3 cells were allowed to attach for 10 hours. […] Cells were lysed in ELB (250 mM NaCl, 50 mM HEPES pH 7.0, 5 mM EDTA, 0.5 mM DTT, 0.2% TX100, 20 mM sodium fluoride, 2 mM sodium pervanadate, Complete Protease Inhibitor Cocktail (Roche)). Lysates were centrifuged for 15 minutes at 4° C. Protein concentration was determined using the BCA system (Sigma) and equal amounts of protein were loaded into each lane of a SDS-polyacrylamide gel. The proteins were transferred onto PVDF (Millipore) membranes and detected with anti-mouse or anti-rabbit secondary antibodies couples to horseradish peroxidase (HRP) and chemiluminescence using the SuperSignal West Dura (Pierce). Membranes were stripped using the Restore Western Blot Stripping Buffer (Pierce).

mTOR = conditions: 0.5 mM, various time periods
Excerpt: as §3, §4

GSK-3β = conditions: 0.5 mM, various time periods
Excerpt: as §3, §4

PDK1 = conditions: 0.5 mM, out to 6 hours
Excerpt: as §3, §4

PC-3 cells [3] = conditions: 24-72 hours
Experimental: Analysis of PC-3 growth curves were achieved by allowing 2×10^5 PC-3 cells to attach overnight. […] Supernatants and cells were then harvested, combined and viable cells assessed by Trypan Blue exclusion assay. Experiments were performed in triplicate.

[4] = tested on: androgen sensitive LNCaP cells; conditions: for androgen sensitive NS LNCaP cell proliferation: 5 μM, 9 days
Experimental: Cells were harvested at 72 hours following addition of the compounds and cell counts of viable cells as assessed by Trypan Blue staining were determined.
Cells were harvested at the indicated periods following addition of the compounds and cell counts of viable cells as assessed by Trypan Blue staining were determined.
as §1, §2

[5] = tested on: cell cycle regulatory proteins (cyclin D1, cdk4, cdk6, p27KIP1, p21CIP1); test: Immunoblot of cell cycle regulatory proteins in PC-3 cells; format: cell-based, human
Excerpt: as §3, §4

[6] = tested on: human prostate tumor cells; conditions: in comparison to organic selenomethionine, methylselenocysteine or selenized yeast; cited from earlier work
PC-3 cells [7] = test: MTT growth assay; format: cell-based, human
Experimental: MTT Growth Assays involved plating 1×10^3 PC-3 cells per well in a 96 well plate and allowing the cells to attach overnight. […] The controls for this experiment received an equal volume of LY294002 diluent (DMSO). MTT growth assays were then performed according to the manufacturer's protocol (Sigma).

Akt = test: Activation of Akt by different selenium compounds in PC-3 cells, immunoblot; format: cell-based, human; conditions: serum starved PC-3 cells
Excerpt: Signal intensities from the developed films were scanned and intensities of active Akt correlated to total Akt levels were plotted.

[8] = 50 μM, 72 hours, presence or absence of androgen

For `O=[Se](=O)(O)O` [sodium selenate], the “CSS LNCaP cell proliferation” value ([1]; 5 μM, 9 days, absence of androgen (charcoal stripped serum)) was “synergizes with androgen ablation to markedly reduce”, the “androgen independent CSS LNCaP cell proliferation” value ([1]; 5 μM, 9 days, presence of testosterone (normal serum)) was “markedly reduces” and the “sensitivity of androgen independent cells versus parental LNCaP cells” value ([1]; 50 μM, 72 hours) was “even more sensitive”. For the same compound, the “CSS LNCaP cell proliferation” value [1, 8] was “synergizes with androgen ablation to reduce”, the “phosphorylation of Rb (ser807/811)” value [2] was “marked decline” and the mTOR phosphorylation status (mTOR) was “induced a decline”. The GAK-3β phosphorylation status (GSK-3β) was “induced a decline”, the “phosphorylation status of PDK1 (ser241, tyr373/376)” value (PDK1) was “no effect” and the PC-3 cell number (PC-3 cells [3]; doses of 0.01 to 0.1 mM) was “rate of increase in cell number was impeded”. The PC-3 cell number (PC-3 cells [3]; doses of 0.25 and 0.5 mM) was “all increases in cell number were blocked”, the “androgen sensitive NS LNCaP cell proliferation” value ([4]; absence of androgen (charcoal stripped serum)) was “synergizes with androgen ablation to markedly reduce” and the “androgen sensitive NS LNCaP cell proliferation” value ([4]; presence of androgen (normal serum)) was “markedly reduces”. For the same compound, the “parental LNCaP cell proliferation” value [4, 8] was “synergizes with androgen ablation to reduce”, the “p27KIP1 total protein levels, inorganic versus organic selenium” value ([5]; 0.5 mM, compared to control (0 hours), FIG. 3C) was “markedly boosted” and the “expression levels of cyclin D1” value ([5]; 0.5 mM, from the 14 hour time period) was “dropped significantly”. For the same compound, the cdk4 levels ([5]; 0.5 mM, out to 24 hours) was “peaked at 6 hours and declined in time dependent manner to 24 hours”, the p21CIP1 levels ([5]; 0.5 mM, peaking at 6 hours) was “marked increase” and the p27KIP1 levels ([5]; 0.5 mM, time-dependent till 24 hours) was “increased”. For the same compound, the cdk6 levels ([5]; high dose (0.5 mM)) was “remained relatively unchanged”, the tumor progression [6] was “significantly reduces tumor progression” and the “PC-3 cell proliferation (MTT proliferative index)” value (PC-3 cells [7]; 0.25 and 0.5 mM, 72 hour) was “markedly reduced”. The “proliferative inhibition with added LY294002” value (PC-3 cells [7]; high dose sodium selenate plus LY294002, 72 hours) was “not enhanced by LY294002”, the “PC-3 cell number (MTT)” value (PC-3 cells [7]; lowest dose 0.01 mM) was “slight, but reproducible boost in cell number” and the “activation of Akt (phosphorylated Akt relative to total Akt)” value (Akt; 125 μM, 6 hours) was “inhibits activation of Akt”. For the same compound, the “activation of Akt at high dose” value (Akt; 500 μM, 1 hour) was “inhibited activation of Akt”.
